Reference: patent publication US10947252B2, “Inhibitors of KEAP1-Nrf2 protein-protein interaction” (Janssen Pharmaceutica NV, priority 2018, dated 2021)
pEC50: −log10 of the molar value.

The compounds below were run on Glo-Response ARE-luc2P HEK293 cell line (assay: ARE luciferase reporter cell-based assay). Details: 24 hours, average of results obtained.
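Also: luciferase signal tracks Nrf2 activation of the ARE once compounds disrupt KEAP1-Nrf2 binding, read with One-Glo reagent, DMSO serving as low control.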

Structure (SMILES)	pEC50
Cc1ccc(C(c2ccn3c(C(F)(F)F)nnc3c2C)C(C)C(=O)O)cc1CN1C[C@@H]2CCCCN2c2ncccc2S1(=O)=O (stereo in doubt) [Example 129, 3-(3-(((*S)-5,5-Dioxido-7,7a,8,9,10,11-hexahydro-6H-dipyrido[2,1-d:2′,3′-f][1,2,5]thiadiazepin-6-yl)methyl)-4-methylphenyl)-2-methyl-3-(8-methyl-3-(trifluoromethyl)-[1,2,4]triazolo[4,3-a]pyridine-7-yl)propanoic Acid]	8.17

Same assay, conditions: Homo sapiens, HEK293, 24 h, average of results obtained

Structure (SMILES)	pEC50
Cc1ccc([C@@H](c2cc(OC(F)F)c3c(c2)nnn3C)C(C)(C)C(=O)O)cc1CN1CC2(CCOCC2)Oc2ncccc2S1(=O)=O (single isomer, unassigned) [Example 426]	9.05
Cc1ccc([C@H](c2cc(OC(F)F)c3c(c2)nnn3C)C(C)(C)C(=O)O)cc1CN1CC2(CCOCC2)Oc2ncccc2S1(=O)=O (single isomer, unassigned) [Example 427, (R*)-3-(7-(difluoromethoxy)-1-methyl-1H-benzo[d][1,2,3]triazol-5-yl)-3-(3-((1′,1′-dioxido-2,3,5,6-tetrahydrospiro[pyran-4,4′-pyrido[2,3-b][1,4,5]oxathiazepin]-2′(3′H)-yl)methyl)-4-methylphenyl)-2,2-dimethylpropanoic Acid]	6.53
Cc1ccc([C@H](c2ccc3c(nnn3CC3CC3)c2C)C(C)(C)C(=O)O)cc1CN1CC2(CCOCC2)Oc2ncccc2S1(=O)=O (single isomer, unassigned) [Example 429, (R*)-3-(1-(cyclopropylmethyl)-4-methyl-1H-benzo[d][1,2,3]triazol-5-yl)-3-(3-((1′,1′-dioxido-2,3,5,6-tetrahydrospiro[pyran-4,4′-pyrido[2,3-b][1,4,5]oxathiazepin]-2′(3′H)-yl)methyl)-4-methylphenyl)-2,2-dimethylpropanoic Acid]	4.75
Cc1ccc([C@H](CC(=O)O)c2ccn3c(C(F)F)nnc3c2C)cc1CN1CC2(CCOCC2)Oc2ccc(F)cc2S1(=O)=O (single isomer, unassigned) [Example 524, (*S)-3-(3-(Difluoromethyl)-8-methyl-[1,2,4]triazolo[4,3-a]pyridin-7-yl)-3-(3-((8-fluoro-1,1-dioxido-2′,3′,5′,6′-tetrahydrospiro[benzo[b][1,4,5]oxathiazepine-4,4′-pyran]-2(3H)-yl)methyl)-4-methylphenyl)propanoic Acid]	7.71
Cc1ccc([C@H](CC(=O)O)c2ccn3c(C(F)F)nnc3c2C)cc1CN1CC2(CC2)Oc2ncc(Cl)cc2S1(=O)=O (single isomer, unassigned) [Example 530, (*S)-3-(3-((8′-Chloro-1′,1′-dioxidospiro[cyclopropane-1,4′-pyrido[2,3-b][1,4,5]oxathiazepin]-2′(3′H)-yl)methyl)-4-methylphenyl)-3-(3-(difluoromethyl)-8-methyl-[1,2,4]triazolo[4,3-a]pyridin-7-yl)propanoic Acid]	7.99
Cc1ccc([C@@H](c2ccn3c(C(F)F)nnc3c2C)C(C)(C)C(=O)O)cc1CN1CC2(CC2)Oc2ncccc2S1(=O)=O (single isomer, unassigned) [Example 567, (*S)-3-(3-(Difluoromethyl)-8-methyl-[1,2,4]triazolo[4,3-a]pyridin-7-yl)-3-(3-((1′,1′-dioxidospiro[cyclopropane-1,4′-pyrido[2,3-b][1,4,5]oxathiazepin]-2′(3′H)-yl)methyl)-4-methylphenyl)-2,2-dimethylpropanoic Acid]	8.59
Cc1ccc([C@H](c2ccn3c(C(F)F)nnc3c2C)C(C)(C)C(=O)O)cc1CN1CC2(CC2)Oc2ncccc2S1(=O)=O (single isomer, unassigned) [Example 568, (*R)-3-(3-(Difluoromethyl)-8-methyl-[1,2,4]triazolo[4,3-a]pyridin-7-yl)-3-(3-((1′,1′-dioxidospiro[cyclopropane-1,4′-pyrido[2,3-b][1,4,5]oxathiazepin]-2′(3′H)-yl)methyl)-4-methylphenyl)-2,2-dimethylpropanoic Acid]	6.72
Cc1cnc([C@H](c2ccn3c(C(F)F)nnc3c2C)C(C)(C)C(=O)O)cc1CN1CC2(CC2)Oc2nc(OCCN3CCCCC3)c(C)cc2S1(=O)=O (single isomer, unassigned) [Example 637, (*R)-3-(3-(Difluoromethyl)-8-methyl-[1,2,4]triazolo[4,3-a]pyridin-7-yl)-2,2-dimethyl-3-(5-methyl-4-((8′-methyl-1′,1′-dioxido-7′-(2-(piperidin-1-yl)ethoxy)spiro[cyclopropane-1,4′-pyrido[2,3-b][1,4,5]oxathiazepin]-2′(3′H)-yl)methyl)pyridin-2-yl)propanoic Acid]	6.21
Cc1cnc([C@H](c2ccn3c(C(F)F)nnc3c2C)C(C)(C)C(=O)O)cc1CN1CC2(CCOCC2)Oc2nc(OCCN3CCCCC3)c(C)cc2S1(=O)=O (single isomer, unassigned) [Example 641, (*R)-3-(3-(Difluoromethyl)-8-methyl-[1,2,4]triazolo[4,3-a]pyridin-7-yl)-2,2-dimethyl-3-(5-methyl-4-((8′-methyl-1′,1′-dioxido-7′-(2-(piperidin-1-yl)ethoxy)-2,3,5,6-tetrahydrospiro[pyran-4,4′-pyrido[2,3-b][1,4,5]oxathiazepin]-2′(3′H)-yl)methyl)pyridin-2-yl)propanoic Acid]	5.64
Cc1cnc2c(c1)S(=O)(=O)N(Cc1cc([C@@H](c3ccc4c(nnn4C4CC4)c3C)C(C)(C)C(=O)O)ccc1C)CC1(CNC1)O2 (single isomer, unassigned) [Example 646, (*S)-3-(1-Cyclopropyl-4-methyl-1H-benzo[d][1,2,3]triazol-5-yl)-2,2-dimethyl-3-(4-methyl-3-((8′-methyl-1′,1′-dioxidospiro[azetidine-3,4′-pyrido[2,3-b][1,4,5]oxathiazepin]-2′(3′H)-yl)methyl)phenyl)propanoic Acid]	7.18
Cc1ccc([C@@H](c2ccc3c(nnn3C3CC3)c2C)C(C)(C)C(=O)O)cc1CN1CC2(CCNCC2)Oc2ncccc2S1(=O)=O (single isomer, unassigned) [Example 648, (*S)-3-(1-Cyclopropyl-4-methyl-1H-benzo[d][1,2,3]triazol-5-yl)-3-(3-((1′,1′-dioxidospiro[piperidine-4,4′-pyrido[2,3-b][1,4,5]oxathiazepin]-2′(3′H)-yl)methyl)-4-methylphenyl)-2,2-dimethylpropanoic Acid]	5.87
Cc1cnc2c(c1)S(=O)(=O)N(Cc1cc([C@@H](CC(=O)O)c3ccn4c(C(F)(F)F)nnc4c3C)ccc1Cl)CC1CCCCN21 (stereo in doubt) [Example 90, (*R)-3-(4-Chloro-3-(((*S)-3-methyl-5,5-dioxido-7,7a,8,9,10,11-hexahydro-6H-dipyrido[2,1-d:2′,3′-f][1,2,5]thiadiazepin-6-yl)methyl)phenyl)-3-(8-methyl-3-(trifluoromethyl)-[1,2,4]triazolo[4,3-a]pyridine-7-yl)propanoic Acid]	8.38
Cc1cnc2c(c1)S(=O)(=O)N(Cc1cc([C@H](CC(=O)O)c3ccn4c(C(F)F)nnc4c3C)ccc1C)C[C@@H]1CCCCN21 (stereo in doubt) [Example 500, (*S)-3-(3-(Difluoromethyl)-8-methyl-[1,2,4]triazolo[4,3-a]pyridin-7-yl)-3-(4-methyl-3-(((*S)-3-methyl-5,5-dioxido-7,7a,8,9,10,11-hexahydro-6H-dipyrido[2,1-d:2′,3′-f][1,2,5]thiadiazepin-6-yl)methyl)phenyl)propanoic Acid]	8.18
Cc1cnc2c(c1)S(=O)(=O)N(Cc1cc([C@@H](CC(=O)O)c3ccn4c(C(F)F)nnc4c3C)ccc1C)C[C@@H]1CCCCN21 (stereo in doubt) [Example 501, (*R)-3-(3-(Difluoromethyl)-8-methyl-[1,2,4]triazolo[4,3-a]pyridin-7-yl)-3-(4-methyl-3-(((*S)-3-methyl-5,5-dioxido-7,7a,8,9,10,11-hexahydro-6H-dipyrido[2,1-d:2′,3′-f][1,2,5]thiadiazepin-6-yl)methyl)phenyl)propanoic Acid]	7.46
Cc1cnc2c(c1)S(=O)(=O)N(Cc1cc(C(CC(=O)O)c3ccn4c(C(F)F)nnc4c3C)ccc1C)C[C@H]1CCCCN21 (stereo in doubt) [Example 502, 3-(3-(Difluoromethyl)-8-methyl-[1,2,4]triazolo[4,3-a]pyridin-7-yl)-3-(4-methyl-3-(((*R)-3-methyl-5,5-dioxido-7,7a,8,9,10,11-hexahydro-6H-dipyrido[2,1-d:2′,3′-f][1,2,5]thiadiazepin-6-yl)methyl)phenyl)propanoic Acid]	8.41
Cc1cnc2c(c1)S(=O)(=O)N(Cc1cc([C@H](CC(=O)O)c3ccn4c(C(F)F)nnc4c3C)ccc1C)C[C@H]1CCCCN21 (stereo in doubt) [Example 503, (*S)-3-(3-(Difluoromethyl)-8-methyl-[1,2,4]triazolo[4,3-a]pyridin-7-yl)-3-(4-methyl-3-(((*R)-3-methyl-5,5-dioxido-7,7a,8,9,10,11-hexahydro-6H-dipyrido[2,1-d:2′,3′-f][1,2,5]thiadiazepin-6-yl)methyl)phenyl)propanoic Acid]	8.59
Cc1cnc2c(c1)S(=O)(=O)N(Cc1cc([C@@H](CC(=O)O)c3ccn4c(C(F)F)nnc4c3C)ccc1C)C[C@H]1CCCCN21 (stereo in doubt) [Example 504, (*R)-3-(3-(Difluoromethyl)-8-methyl-[1,2,4]triazolo[4,3-a]pyridin-7-yl)-3-(4-methyl-3-(((*R)-3-methyl-5,5-dioxido-7,7a,8,9,10,11-hexahydro-6H-dipyrido[2,1-d:2′,3′-f][1,2,5]thiadiazepin-6-yl)methyl)phenyl)propanoic Acid]	8.14
CCn1nnc2c(C)c(C(c3ccc(C)c(CN4CC5(CCOCC5)Oc5ncccc5S4(=O)=O)c3)C(C)(C)C(=O)O)ccc21 (stereo not shown) [Example 14, 3-(3-((1′,1′-Dioxido-2,3,5,6-tetrahydrospiro[pyran-4,4′-pyrido[2,3-b][1,4,5]oxathiazepin]-2′(3′H)-yl)methyl)-4-methylphenyl)-3-(1-ethyl-4-methyl-1H-benzo[d][1,2,3]triazol-5-yl)-2,2-dimethylpropanoic Acid]	9.15
